Data published in patent US8895744B2, “Alfa-carboline inhibitors of NPM-ALK, RET, and Bcr-Abl” (Universita' Degli Studi di Milano-Bicocca, priority 2008, dated 2014).

Columns and labels:
Recombinant ALK kinase = molecular target: T1, Recombinant ALK kinase (Homo sapiens, UniProt Q9UM73); test: ALK kinase inhibitory activity, ELISA-based in vitro kinase assay; type: biochemical; settings: purified rALK, 0.3 mM ATP, read-out: ALK IC50
T1 construct: made in house; host or cells: Sf9 insect cells (baculovirus)
T1 sequence (Q9UM73 19-1620): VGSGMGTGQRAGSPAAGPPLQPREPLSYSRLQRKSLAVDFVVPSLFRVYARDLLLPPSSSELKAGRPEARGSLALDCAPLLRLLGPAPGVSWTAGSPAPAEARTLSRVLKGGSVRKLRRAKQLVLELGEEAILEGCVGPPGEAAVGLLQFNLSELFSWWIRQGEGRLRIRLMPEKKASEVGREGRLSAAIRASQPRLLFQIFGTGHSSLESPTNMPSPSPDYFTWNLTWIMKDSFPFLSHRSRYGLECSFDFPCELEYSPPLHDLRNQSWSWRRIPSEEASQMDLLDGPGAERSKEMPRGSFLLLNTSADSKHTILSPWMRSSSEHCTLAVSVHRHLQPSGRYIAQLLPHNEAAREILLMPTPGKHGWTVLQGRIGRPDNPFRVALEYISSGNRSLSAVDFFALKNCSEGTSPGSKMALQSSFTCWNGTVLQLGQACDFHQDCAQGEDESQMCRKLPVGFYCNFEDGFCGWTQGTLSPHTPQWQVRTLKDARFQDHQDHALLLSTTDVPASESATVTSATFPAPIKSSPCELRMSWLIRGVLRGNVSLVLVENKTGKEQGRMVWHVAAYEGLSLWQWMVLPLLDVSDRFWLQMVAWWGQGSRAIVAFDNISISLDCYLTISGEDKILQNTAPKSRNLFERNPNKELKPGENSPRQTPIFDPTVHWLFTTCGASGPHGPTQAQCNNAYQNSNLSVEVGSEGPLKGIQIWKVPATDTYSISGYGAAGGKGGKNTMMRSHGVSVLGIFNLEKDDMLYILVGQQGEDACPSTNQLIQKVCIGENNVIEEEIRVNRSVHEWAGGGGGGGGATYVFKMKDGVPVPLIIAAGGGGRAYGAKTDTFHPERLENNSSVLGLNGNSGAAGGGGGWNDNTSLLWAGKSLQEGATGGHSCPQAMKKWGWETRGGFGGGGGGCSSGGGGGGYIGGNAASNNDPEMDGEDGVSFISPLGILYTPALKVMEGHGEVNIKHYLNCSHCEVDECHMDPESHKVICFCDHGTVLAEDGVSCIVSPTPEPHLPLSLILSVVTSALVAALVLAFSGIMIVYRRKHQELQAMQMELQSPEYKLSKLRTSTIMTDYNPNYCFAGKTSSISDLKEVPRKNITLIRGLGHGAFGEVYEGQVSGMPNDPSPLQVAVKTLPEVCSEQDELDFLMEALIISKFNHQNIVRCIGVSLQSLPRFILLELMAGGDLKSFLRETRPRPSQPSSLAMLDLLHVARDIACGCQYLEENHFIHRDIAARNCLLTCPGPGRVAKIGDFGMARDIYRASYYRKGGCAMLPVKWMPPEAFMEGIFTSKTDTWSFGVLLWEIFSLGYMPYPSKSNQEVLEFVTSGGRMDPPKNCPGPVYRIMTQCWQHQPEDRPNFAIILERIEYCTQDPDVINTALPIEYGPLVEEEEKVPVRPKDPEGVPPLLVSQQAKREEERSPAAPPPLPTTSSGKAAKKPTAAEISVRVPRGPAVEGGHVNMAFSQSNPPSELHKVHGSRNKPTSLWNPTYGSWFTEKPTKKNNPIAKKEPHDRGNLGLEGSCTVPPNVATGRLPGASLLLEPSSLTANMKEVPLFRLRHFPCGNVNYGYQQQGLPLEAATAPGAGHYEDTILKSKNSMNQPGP
Description: 36. Alk Kinase Inhibitory Activity
(§1) Method: ELISA-Based In Vitro Kinase Assay
(§2) Recombinant ALK kinase was expressed in Sf9 insect cells using the pBlueBacHis2C baculovirus vector system and purified using an anion exchange Fast Flow Q-sepharose column (Amersham-Pharmacia Biotech) followed by HiTrap™-nickel affinity column (Amersham-Pharmacia Biotech). Purified ALK protein was used to screen inhibitors in the ELISA-based kinase assay. A Nunc Immuno 96 well plate was incubated overnight at 37° C. with coating solution (125 μL/well) containing ALK peptide substrate ([…]) (SEQ ID NO: 1) at various concentrations in PBS. Wells were then washed with 200 μL of wash buffer (PBS-Tween 0.05%) and left to dry for at least 2 h at 37° C. The kinase reaction was performed in the presence of 50 mM Tris pH 7.5, 5 mM MnCl2, 5 mM MgCl2, 0.3 mM ATP and purified rALK in a total volume of 100 μL/well at 30° C. for 15 min. For inhibitor testing the reaction mix was preincubated with the inhibitor or solvent control for 10 min at room temperature before transferring to the ELISA plate. After the reaction wells were washed 5 times with 200 μL of wash buffer. Phosphorylated peptide was detected using 100 μL/well of a mouse monoclonal anti-phosphotyrosine antibody (clone 4G10 Upstate Biotech Ltd) diluted 1:2000 in PBS+4% BSA. After 30 min incubation at room temperature the antibody was removed and wells were washed as described above. 100 μL of a secondary antibody (anti-mouse IgG, Horseradish Peroxidase linked whole antibody, Amersham Pharmacia Biotech) diluted 1:1000 in PBS+4% BSA was added to each well and the plate was incubated again for 30 min at room temperature before washing as above. The plate was developed using 100 μL/well TMB Substrate Solution (Endogen) and the reaction was stopped by adding an equiv.ual volume of H2SO4 0.36 M. Finally, the absorbance was read at 450 nm using an Ultrospec® 300 spectrophotometer (Amersham-Pharmacia Biotech). The concentration of the test solution showing 50% inhibition as compared with the control was expressed as IC50 (μM).

[1] = molecular target: T2, BaF3 cells transformed with the oncogenic fusion protein NPM/ALK (Homo sapiens, UniProt Q9UM73); test: Tritiated thymidine uptake cell proliferation assay, BaF3 NPM/ALK; type: cell-based; settings: 3[H]-thymidine uptake, 72 h; read-out: BaF NPM/ALK IC50
T2 construct: fused on or other part: P06748 (Nucleophosmin)
T2 sequence (Q9UM73 whole entry, change not shown, the tested form may be a part): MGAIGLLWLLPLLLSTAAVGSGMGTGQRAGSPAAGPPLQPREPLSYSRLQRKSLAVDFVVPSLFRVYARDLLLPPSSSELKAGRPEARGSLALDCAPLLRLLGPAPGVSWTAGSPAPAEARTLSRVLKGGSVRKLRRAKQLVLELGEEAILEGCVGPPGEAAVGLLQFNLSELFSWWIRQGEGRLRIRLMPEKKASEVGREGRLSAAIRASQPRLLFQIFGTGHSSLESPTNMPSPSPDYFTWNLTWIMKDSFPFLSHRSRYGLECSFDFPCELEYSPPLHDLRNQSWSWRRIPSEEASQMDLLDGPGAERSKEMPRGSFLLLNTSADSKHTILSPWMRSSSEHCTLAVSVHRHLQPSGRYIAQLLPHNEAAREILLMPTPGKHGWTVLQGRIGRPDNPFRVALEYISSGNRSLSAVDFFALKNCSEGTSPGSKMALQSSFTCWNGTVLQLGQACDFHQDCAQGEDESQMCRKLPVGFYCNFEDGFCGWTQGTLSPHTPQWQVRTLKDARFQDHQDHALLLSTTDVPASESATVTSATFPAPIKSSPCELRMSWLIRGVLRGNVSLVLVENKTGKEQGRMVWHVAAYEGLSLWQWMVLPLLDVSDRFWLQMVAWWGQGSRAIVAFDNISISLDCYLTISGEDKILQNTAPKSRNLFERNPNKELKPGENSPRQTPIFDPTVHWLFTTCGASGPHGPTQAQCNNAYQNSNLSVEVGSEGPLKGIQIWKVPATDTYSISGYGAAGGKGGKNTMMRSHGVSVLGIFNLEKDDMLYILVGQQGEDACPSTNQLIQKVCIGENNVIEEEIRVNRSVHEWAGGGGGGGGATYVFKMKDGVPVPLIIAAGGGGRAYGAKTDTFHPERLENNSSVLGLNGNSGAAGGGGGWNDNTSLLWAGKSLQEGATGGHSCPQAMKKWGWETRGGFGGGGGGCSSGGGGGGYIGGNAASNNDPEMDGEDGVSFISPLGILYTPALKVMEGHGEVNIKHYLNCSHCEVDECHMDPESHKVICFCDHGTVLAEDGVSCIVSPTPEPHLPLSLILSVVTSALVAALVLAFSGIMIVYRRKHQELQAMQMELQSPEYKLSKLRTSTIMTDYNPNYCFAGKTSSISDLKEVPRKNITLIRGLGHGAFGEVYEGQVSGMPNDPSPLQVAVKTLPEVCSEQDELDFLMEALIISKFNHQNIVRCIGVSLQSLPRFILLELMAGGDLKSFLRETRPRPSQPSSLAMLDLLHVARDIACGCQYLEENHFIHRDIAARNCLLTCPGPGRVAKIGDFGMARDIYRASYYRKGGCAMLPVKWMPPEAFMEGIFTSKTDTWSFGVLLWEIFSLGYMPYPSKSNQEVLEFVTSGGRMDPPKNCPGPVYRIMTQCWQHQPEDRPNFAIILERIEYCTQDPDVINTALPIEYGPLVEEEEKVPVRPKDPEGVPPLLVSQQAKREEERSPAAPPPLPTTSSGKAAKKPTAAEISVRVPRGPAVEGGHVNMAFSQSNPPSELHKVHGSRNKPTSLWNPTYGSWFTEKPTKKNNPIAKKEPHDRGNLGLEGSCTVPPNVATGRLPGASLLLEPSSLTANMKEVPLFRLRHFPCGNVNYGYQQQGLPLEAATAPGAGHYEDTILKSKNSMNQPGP
Description: Inhibition of the proliferation of NPM/ALK positive cells
(§3) Method: Tritiated Thymidine Uptake Cell Proliferation Assay
(§4) The following procedure was used with parent untransformed BaF3 cells, BaF3 cells transformed with the oncogenic fusion protein NPM/ALK, NPM/ALK positive SUDHL-1 cells, ALK-negative U937 cells, NPM/ALK positive KARPAS-299 cells. The parent untransformed BaF3 cells and Alk-negative U937 cells are used as controls. Cells were seeded in U-bottomed 96-well plates at 10 000 cells/well in a volume of 100 μL in supplemented medium. In the case of the parent untransformed BaF3 cells, the medium was supplemented with IL-3. Serial dilutions of inhibitors were added to the appropriate wells and volumes adjusted to 200 μL. Controls were treated with the equivalent volume of vehicle, DMSO, alone. Plates were incubated at 37° C. for 72 h. ^3[H]-thymidine (1 μCi/well) was added for the last 16 h of incubation. Cells were harvested on to paper filters and ^3[H]-thymidine incorporation was measured using a β scintillation counter (1430 MicroBeta, Wallac, Turku, Finland). The 50% inhibitory concentration (IC50) was defined as the concentration of inhibitor, expressed in micromolar, that gave a 50% decrease in ^3[H]-thymidine uptake compared with controls.

[2] = system: parent untransformed BaF3 cells; test: Tritiated thymidine uptake cell proliferation assay, parental BaF3 (control); type: cell-based; settings: Mus musculus, 3[H]-thymidine uptake, 72 h, medium with IL-3, read-out: BaF parental IC50
Description: as §3, §4
as §4, with “protein bcr-abl, Abl-negative” for “protein NPM/ALK, NPM/ALK positive SUDHL-1 cells, ALK-negative”, “cells, or Bcr-abl” for “cells, NPM/ALK”, “positive LAMA-84” for “positive KARPAS-299”, “and Abl-negative” for “and Alk-negative”, “in ^3H-thymidine” for “in ^3[H]-thymidine”
as §4, with “RET-PTC2, or RET-negative 11937” for “NPM/ALK, NPM/ALK positive SUDHL-1 cells, ALK-negative U937 cells, NPM/ALK positive KARPAS-299”, “RET-negative” for “Alk-negative”

[3] = molecular target: T3, Recombinant Abl T315I protein (Homo sapiens, UniProt P00519, T315I); test: Abl T315I mutant kinase inhibitory activity, ELISA-based in vitro kinase assay; type: biochemical; settings: purified Abl T315I, 0.3 mM ATP
T3 construct: made in house; host or cells: Sf9 cells (baculovirus)
Description: as §2
37. Abl T315I Mutant Kinase Inhibitory Activity
as §1
Recombinant Abl T315I protein was expressed in Sf9 cells using the pBlueBacHis2C baculovirus expression vector. Abl T315I was purified using an anion exchange Fast Flow Q-sepharose column (Amersham-Pharmacia Biotech) followed by HiTrap™-nickel affinity column (Amersham-Pharmacia Biotech). Purified Abl T315I was used in the ELISA-based kinase assay to screen inhibitors as described above. The kinase reaction was performed in the presence of 50 mM Tris pH 7.5, 1 mM MnCl2, 5 mM MgCl2, 0.3 mM ATP, peptide substrate ([…]) (SEQ ID NO: 1) and purified Abl T315I. The concentration of the test solution showing 50% inhibition as compared with the control was expressed as IC50 (μM).

Structure (SMILES)	IC50 (Recombinant ALK kinase)	GI50 [1]	IC50 [3]	IC50 [2]
COC(=O)C(=O)c1ccc2[nH]c3nc(C)ccc3c2c1 [R241, Methyl 2-oxo-2-[2-methyl-9H-pyrido[2,3-b]indol-6-yl]acetate]	25.3 ± 2.6 µM	–	–	–
CC(=O)c1ccc2[nH]c3nc(C)ccc3c2c1 [R242, 6-acetyl-2-methyl-9H-pyrido[2,3-b]indole]	87.1 ± 1.3 µM	–	–	–
Cc1ccc2c(n1)[nH]c1ccc(C(=O)c3ccccc3)cc12 [R243, 6-benzoyl-2-methyl-9H-pyrido[2,3-b]indole]	15.3 ± 1.5 µM	–	–	–
O=[N+]([O-])/C=C/c1ccc2[nH]c3ncccc3c2c1 [R244]	14.6 ± 2.8 µM	–	–	–
CNCC(=O)c1ccc2[nH]c3ncccc3c2c1 [R245]	82.4 ± 8.1 µM	–	–	–
CN(C)/C=C/C(=O)c1ccc2[nH]c3ncccc3c2c1 [R246]	55.1 ± 16.9 µM	–	–	–
Nc1cccc(-c2ccc3[nH]c4ncccc4c3c2)n1 [R247]	> 100 µM	–	–	–
O=C(Nc1ccc2[nH]c3ncccc3c2c1)c1ccccc1 [R249]	> 100 µM	–	–	–
O=C(CBr)c1ccc2[nH]c3ncc(Cl)cc3c2c1 [R251, 2-Bromo-1-(3-chloro-9H-pyrido[2,3-b]indol-6-yl)ethanone]	9.7 ± 1.3 µM	–	–	–
COc1ccc2sc(SCC(=O)c3ccc4[nH]c5ncc(Cl)cc5c4c3)nc2c1 [R301, 1-(3-chloro-9H-pyrido[2,3-b]indol-6-yl)-2-(5-methoxybenzothiazol-2-ylsulfanyl)éthanone]	38 ± 16 µM	–	–	–
CN1CCN(C(=O)CCC(=O)c2ccc3[nH]c4nc(Cl)ccc4c3c2)CC1 [R302, 1-(2-Chloro-9H-pyrido[2,3-b]indol-6-yl)-4-(4-methylpiperazin-1-yl)butane-1,4-dione]	24 ± 2 µM	4.8 µM	–	5.8 µM
CN1CCN(C(=O)CCC(=O)c2ccc3[nH]c4ncc(Cl)cc4c3c2)CC1 [R303, 1-(3-Chloro-9H-pyrido[2,3-b]indol-6-yl)-4-(4-methylpiperazin-1-yl)butane-1,4-dione]	93 ± 1 µM	5.1 µM	87 µM	9.5 µM
CCN(CC)CCSCC(=O)c1ccc2[nH]c3nc(Cl)ccc3c2c1 [R305, 1-(2-Chloro-9H-pyrido[2,3-b]indol-6-yl)-2-(N,N-diethylaminoethylsulfanyl)ethan-1-one]	17 ± 1 µM	5.2 µM	16 µM	5.5 µM
Clc1cnc2[nH]c3ccc(-c4ccc(N5CCOCC5)cn4)cc3c2c1 [R308, 3-Chloro-6-(5-morpholin-4-yl-pyridin-2-yl)-9H-pyrido[2,3-b]indole]	> 100 µM	60 µM	–	50 µM
C(=C\c1ccc2c(n1)[nH]c1ccc(-c3ccc(CN4CCOCC4)cc3)cc12)/c1ccccc1 [R316]	> 33 µM	10 µM	–	> 33 µM
C(=C\c1ccc2[nH]c3nc(Nc4ccccc4)ccc3c2c1)/c1ccccc1 [R320]	–	–	–	23 µM
CCN(CC)CCSCC(=O)c1ccc2[nH]c3nc(Nc4cccc([N+](=O)[O-])c4)ccc3c2c1 [R321, 2-(2′-(N,N-diethylamino)ethylthio)-1-[2-(3-nitrophenylamino)-9H-pyrido[2,3-b]indol-6-yl]ethanone]	18 ± 1 µM	0.3 µM	–	0.7 µM

Continued, in another order:

IC50 (Recombinant ALK kinase)	GI50 [1]	IC50 [3]	Structure (SMILES)	IC50 [2]
20 ± 4 µM	57 µM	–	O=[N+]([O-])c1cccc(Nc2ccnc3[nH]c4ccccc4c23)c1 [R322, N-(3-nitrophenyl)-9H-pyrido[2,3-b]indol-4-amine]	> 100 µM
> 100 µM	3.8 µM	–	COc1cccc(Nc2ccnc3[nH]c4ccccc4c23)c1 [R324, N-(3-methoxyphenyl)-9H-pyrido[2,3-b]indol-4-amine]	1.7 µM
–	> 100 µM	–	c1coc(-c2cnc3[nH]c4ccccc4c3c2)c1 [R325, 3-(furan-2-yl)-9H-pyrido[2,3-b]indole]	> 100 µM
48 ± 17 µM	13 µM	–	O=[N+]([O-])c1cccc(-c2cnc3[nH]c4ccccc4c3c2)c1 [R328, 3-(3-nitrophenyl)-9H-pyrido[2,3-b]indole]	6.8 µM
12 ± 7 µM	> 100 µM	–	c1ccc(-c2ccc(-c3cnc4[nH]c5ccccc5c4c3)cc2)cc1 [R329, 3-(4-phenylphenyl)-9H-pyrido[2,3-b]indole]	> 100 µM
14 ± 2 µM	> 100 µM	–	c1ccc(-c2ccc(-c3ccnc4[nH]c5ccccc5c34)cc2)cc1 [R330, 4-(4-phenylphenyl)-9H-pyrido[2,3-b]indole]	> 100 µM
> 100 µM	–	–	COc1cccc(Nc2cnc3[nH]c4ccccc4c3c2)c1 [R344, N-(3-methoxyphenyl)-9H-pyrido[2,3-b]indol-3-amine]	–
> 100 µM	–	–	c1c[nH]c(-c2ccc3c(n2)[nH]c2ccccc23)c1 [R355, 2-(1H-pyrrol-2-yl)-9H-pyrido[2,3-b]indole]	–
> 100 µM	–	–	COc1ccc(-c2ccc3[nH]c4ncc(-c5cccc([N+](=O)[O-])c5)cc4c3c2)cc1 [R356]	–
> 100 µM	–	–	COc1ccc(-c2ccc3[nH]c4ncc(-c5cccc(N)c5)cc4c3c2)cc1 [R357, 3-(6-(4-methoxyphenyl)-9H-pyrido[2,3-b]indol-3-yl)benzenamine]	–
> 100 µM	–	–	Fc1cccc(/C=C/c2cnc3[nH]c4ccc(/C=C/c5ccccc5)cc4c3c2)c1 [R359, 3-((E)-2′-(3-fluorophenyl)ethenyl)-6-(E)-(2-(phenyl)ethenyl)-9H-pyrido[2,3-b]indole]	–
